{"source": "patent US9296723B2", "about": "“NAMPT inhibitors” (AbbVie Inc., priority 2012, dated 2016)", "key": {"[1]": {"target": "T1, NAMPT (Homo sapiens, UniProt P43490)", "T1 sequence (P43490 whole entry)": "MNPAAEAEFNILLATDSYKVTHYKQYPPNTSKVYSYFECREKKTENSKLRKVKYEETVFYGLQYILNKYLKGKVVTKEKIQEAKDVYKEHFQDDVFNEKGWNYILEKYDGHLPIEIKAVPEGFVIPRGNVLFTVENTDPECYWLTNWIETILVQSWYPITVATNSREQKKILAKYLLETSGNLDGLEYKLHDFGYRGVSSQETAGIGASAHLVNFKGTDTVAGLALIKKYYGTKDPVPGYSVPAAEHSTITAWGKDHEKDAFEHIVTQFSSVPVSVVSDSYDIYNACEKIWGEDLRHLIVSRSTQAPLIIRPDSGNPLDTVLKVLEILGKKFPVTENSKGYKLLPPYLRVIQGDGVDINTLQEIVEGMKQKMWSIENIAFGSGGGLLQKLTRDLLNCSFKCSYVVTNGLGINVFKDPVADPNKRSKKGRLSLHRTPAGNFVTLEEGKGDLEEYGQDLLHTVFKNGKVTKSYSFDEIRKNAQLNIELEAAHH", "assay": "Time-Resolved Fluorescence Resonance Energy Transfer (TR-FRET) Binding Assay of NAMPT", "conditions": "6.8 nM NAMPT, 200 nM probe, equilibrated 3 hours, no substrates", "summary_of_the_method": "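Compound was mixed with enzyme, probe and antibody and equilibrated 3 h at room temperature. TR-FRET read at Ex 337 nm, Em 520/495 nm. Ratios were normalized to controls and fitted to a four-parameter logistic equation for IC50.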"}, "[2]": {"target": "T1, NAMPT", "assay": "TR-FRET Binding Assay of NAMPT with PRPP", "conditions": "2 nM NAMPT, 2 nM probe, 200 µM PRPP and 2.5 mM ATP, equilibrated 16 hours", "method": "Time-Resolved Fluorescence Resonance Energy Transfer (TR-FRET) Binding Assay of NAMPT with PRPP\nCompound handling and data processing were identical to the assay in the absence of substrates (above). Final concentrations were 1× assay buffer, 2% DMSO, 2 nM NAMPT, 2 nM probe, 1 nM Tb-anti-His antibody (Invitrogen #PV5895), 200 µM PRPP and 2.5 mM ATP. Reactions were equilibrated for 16 hours prior to measurement to allow for potential enzymatic modification of test compounds."}, "[3]": {"tested_on": "PC3 cells", "assay": "NAMPT Cell Proliferation Assay (Cell Titer Glo)", "assay_type": "cell-based", "conditions": "Homo sapiens, PC-3, 120 h, incubated 5 days, cell viability", "summary_of_the_method": "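PC3 cells (500/well, RPMI with 10% heat-inactivated FBS) were exposed to 10-fold compound dilutions from […] for 5 days at 37 °C, 5% CO2. Viability was read with Cell Titer Glo; IC50 from sigmoidal fit of percent inhibition.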"}}, "data": [{"smiles": "O=C(CC1CCCC1)N1CC(c2ccc(NC(=O)N3CC(c4cccnc4)C3)cc2)C1", "note": "[Example 229, N-{4-[1-(cyclopentylacetyl)azetidin-3-yl]phenyl}-3-(pyridin-3-yl)azetidine-1-carboxamide]", "values": [{"measurement": "IC50", "setting": "[1]", "value": 40.3, "unit": "nM"}, {"measurement": "IC50", "setting": "[2]", "value": 0.314, "unit": "nM"}]}, {"smiles": "CCOCC(=O)N1CC(c2ccc(NC(=O)N3CC(c4cccnc4)C3)cc2)C1", "note": "[Example 207, N-{4-[1-(ethoxyacetyl)azetidin-3-yl]phenyl}-3-(pyridin-3-yl)azetidine-1-carboxamide]", "values": [{"measurement": "IC50", "setting": "[1]", "value": 451, "unit": "nM"}, {"measurement": "IC50", "setting": "[2]", "value": 0.37, "unit": "nM"}]}, {"smiles": "CC(C)(C)CC(=O)N1CC(c2ccc(NC(=O)N3CC(c4cccnc4)C3)cc2)C1", "note": "[Example 205, N-{4-[1-(3,3-dimethylbutanoyl)azetidin-3-yl]phenyl}-3-(pyridin-3-yl)azetidine-1-carboxamide]", "values": [{"measurement": "IC50", "setting": "[1]", "value": 42.6, "unit": "nM"}, {"measurement": "IC50", "setting": "[2]", "value": 0.242, "unit": "nM"}]}, {"smiles": "CCC(C)(C)CN1CC(c2ccc(NC(=O)N3CC(c4cccnc4)C3)cc2)C1", "note": "[Example 257, N-{4-[1-(2,2-dimethylbutyl)azetidin-3-yl]phenyl}-3-(pyridin-3-yl)azetidine-1-carboxamide]", "values": [{"measurement": "IC50", "setting": "[1]", "value": 598, "unit": "nM"}, {"measurement": "IC50", "setting": "[2]", "value": 0.223, "unit": "nM"}]}, {"smiles": "O=C(Nc1ccc(C2CN(C(=O)c3ccsc3)C2)cc1)N1CC(c2cccnc2)C1", "note": "[Example 219, 3-(pyridin-3-yl)-N-{4-[1-(thiophen-3-ylcarbonyl)azetidin-3-yl]phenyl}azetidine-1-carboxamide]", "values": [{"measurement": "IC50", "setting": "[1]", "value": 19.4, "unit": "nM"}, {"measurement": "IC50", "setting": "[2]", "value": 0.29, "unit": "nM"}]}, {"smiles": "CCOCCC(=O)N1CC(c2ccc(NC(=O)N3CC(c4cccnc4)C3)cc2)C1", "note": "[Example 203, N-{4-[1-(3-ethoxypropanoyl)azetidin-3-yl]phenyl}-3-(pyridin-3-yl)azetidine-1-carboxamide]", "values": [{"measurement": "IC50", "setting": "[1]", "value": 250, "unit": "nM"}, {"measurement": "IC50", "setting": "[2]", "value": 0.427, "unit": "nM"}]}, {"smiles": "CCCCN1CCC(c2ccc(NC(=O)N3CC(c4cccnc4)C3)cc2)CC1", "note": "[Example 240, N-[4-(1-butylpiperidin-4-yl)phenyl]-3-(pyridin-3-yl)azetidine-1-carboxamide]", "values": [{"measurement": "IC50", "setting": "[1]", "value": 603, "unit": "nM"}, {"measurement": "IC50", "setting": "[2]", "value": 0.466, "unit": "nM"}]}, {"smiles": "CC(C)C(C)C(=O)N1CC(c2ccc(NC(=O)N3CC(c4cccnc4)C3)cc2)C1", "note": "(stereo not shown) [Example 230, N-{4-[1-(2,3-dimethylbutanoyl)azetidin-3-yl]phenyl}-3-(pyridin-3-yl)azetidine-1-carboxamide]", "values": [{"measurement": "IC50", "setting": "[1]", "value": 38.8, "unit": "nM"}, {"measurement": "IC50", "setting": "[2]", "value": 0.305, "unit": "nM"}]}, {"smiles": "CCC(C)(C)CN1CCC(c2ccc(NC(=O)N3CC(c4cccnc4)C3)cc2)CC1", "note": "[Example 244, N-{4-[1-(2,2-dimethylbutyl)piperidin-4-yl]phenyl}-3-(pyridin-3-yl)azetidine-1-carboxamide]", "values": [{"measurement": "IC50", "setting": "[1]", "value": 1170, "unit": "nM"}, {"measurement": "IC50", "setting": "[2]", "value": 0.516, "unit": "nM"}]}, {"smiles": "CC(C)C(=O)N1CC[C@@H](Oc2ccc(NC(=O)N3CC(c4cccnc4)C3)cc2)C1", "note": "[Example 77, N-(4-{[(3R)-1-(2-methylpropanoyl)pyrrolidin-3-yl]oxy}phenyl)-3-(pyridin-3-yl)azetidine-1-carboxamide]", "values": [{"measurement": "IC50", "setting": "[1]", "value": 61.9, "unit": "nM"}, {"measurement": "IC50", "setting": "[3]", "value": 17.3, "unit": "nM"}]}, {"smiles": "O=C(Nc1ccc(C2CN(CC3CCCC3)C2)cc1)N1CC(c2cccnc2)C1", "note": "[Example 245, N-{4-[1-(cyclopentylmethyl)azetidin-3-yl]phenyl}-3-(pyridin-3-yl)azetidine-1-carboxamide]", "values": [{"measurement": "IC50", "setting": "[1]", "value": 317, "unit": "nM"}, {"measurement": "IC50", "setting": "[3]", "value": 617, "unit": "nM"}]}, {"smiles": "O=C(Nc1ccc(OC2CN(C(=O)c3nccs3)C2)cc1)N1CC(c2cccnc2)C1", "note": "[Example 154, 3-(pyridin-3-yl)-N-(4-{[1-(1,3-thiazol-2-ylcarbonyl)azetidin-3-yl]oxy}phenyl)azetidine-1-carboxamide]", "values": [{"measurement": "IC50", "setting": "[1]", "value": 24, "unit": "nM"}, {"measurement": "IC50", "setting": "[3]", "value": 7.89, "unit": "nM"}]}, {"smiles": "O=C(Nc1ccc(O[C@H]2CCN(C(=O)[C@H]3CCCO3)C2)cc1)N1CC(c2cccnc2)C1", "note": "[Example 91, 3-(pyridin-3-yl)-N-[4-({(3S)-1-[(2R)-tetrahydrofuran-2-ylcarbonyl]pyrrolidin-3-yl}oxy)phenyl]azetidine-1-carboxamide]", "values": [{"measurement": "IC50", "setting": "[1]", "value": 320, "unit": "nM"}, {"measurement": "IC50", "setting": "[3]", "value": 111, "unit": "nM"}]}, {"smiles": "CC(C)C(C)C(=O)N1CC(Oc2ccc(NC(=O)N3CC(c4cccnc4)C3)cc2)C1", "note": "(stereo not shown) [Example 123, N-(4-{[1-(2,3-dimethylbutanoyl)azetidin-3-yl]oxy}phenyl)-3-(pyridin-3-yl)azetidine-1-carboxamide]", "values": [{"measurement": "IC50", "setting": "[1]", "value": 14.7, "unit": "nM"}, {"measurement": "IC50", "setting": "[3]", "value": 8.81, "unit": "nM"}]}]}
